Paper PMC10974272, “Cytotoxic and Antiproliferative Activity of LASSBio-2208 and the Attempts to Determine Its Drug Metabolism and Pharmacokinetics In Vitro Profile” (Pharmaceuticals, 2024)

Tests used:
HDAC8 = settings: cited from earlier work
[1] = tested on: human leukaemia cell line (CCRF-CEM); assay: MTT cell viability assay, CCRF-CEM
Description: (§5) After the incubation time, the plate was centrifuged (Universal centrifuge 320R Hettich, Kirchlengern, Germany) at 440× g, 10 min and 4 °C, then 110 µL of supernatant was removed and 10 µL of MTT solution was added and left to incubate for 3.5 h in the oven at 37 °C and 5% CO2. […] The CC50 was calculated using the GraphPad Prism 9.0 program. Each sample was tested in triplicate in three independent experiments (N3) [32, 33].

Plasma stability = assay type: in vitro ADME, rat; settings: for recovery at 10 μM / half-life at 10 μM: rat plasma diluted with phosphate buffer, pH 7.4; for recovery at 10 μM: rat plasma stability assay; for metabolic stability in rat plasma (in words) / half-life at 10 μM / Elimination Rate Constant (k) / Metabolization Rate: rat plasma; for half-life at 10 μM / Elimination Rate Constant (k) / Metabolization Rate: 37 °C, 10 μM; for Metabolization Rate: 0–240 min
Description: Considering that both LASSBio-2208 and LASSBio-1911 have, in their structures, the N-acylhydrazone and hydroxamic acid fragments, both susceptible to metabolic hydrolysis, metabolic stability in plasma was conducted with both compounds.
LASSBio-2208 and LASSBio-1911, in a final concentration of 10 μM from stock solution of 1 mM, was added in 50 μL of rat plasma solution diluted in 250 μL with phosphate buffer (pH 7.4) and was placed in a shaker at 37 °C under vigorous stirring for 0, 30, 60, 120 and 240 min. After each reaction time, 1 mL of cold acetonitrile containing 2 uM internal standard was added to the wells to stop the reaction. The solution was mixed and centrifuged at 24,500× g for 15 min (Universal Centrifuge 320R Hettich). The supernatant (1 mL) was filtrated and placed in vials to be analysed by HPLC.

PAMPA—BBB = assay type: in vitro ADME; parameters: key to Classification BBB: permeable (CNS+); non-permeable (CNS−); settings: for Papp: read-out: Pe. Exp. BBB
Description: To obtain information on the permeability potential of LASSBio-2208 on cell membranes, this derivative was tested using the parallel artificial membrane permeability assay (PAMPA) that is used as an in vitro model of passive diffusion and transcellular permeation. In this model, the permeability across two artificial membranes is measured: brain lipid from pig extract in dodecane (called PAMPA—BBB) and L-α soy phosphatidylcholine in dodecane (called PAMPA—TGI).
To perform the permeability assay we used a donor plate where the compounds (tests or controls) are diluted in a buffered medium, characterized by the presence of a synthetic membrane of polyvinylidene fluoride (PVDF) impregnated with a lipid solution, forming a barrier through which the compounds migrate through a diffusion process to the lower plate called the receptor.
The lipid mixture that impregnates the filter has a different constitution for the permeability tests for the blood–brain barrier (brain lipid from pig extract in dodecane) and gastrointestinal tract (L-α soy phosphatidylcholine in dodecane). In the PAMPA—BBB and PAMPA—GIT assays, the optical density values obtained in the reading at each selected wavelength, for each of the compounds were analysed in comparison with the values of several controls. In the case of the BBB, these values were used to elaborate an equation and determine the permeability coefficient (Pe), using a previously elaborated spreadsheet, and, for the PAMPA—GIT, these values were used to determine the absorbed fraction (Fa%), both using the Excel program. The permeability result for PAMPA—GIT classifies the compounds according to the percentage of absorbed fraction (Fa%), as follows: high intestinal permeability (70–100%), medium permeability (30–69%) or low permeability (0–29%), and the samples were diluted from a stock solution of 10 mM. The PAMPA—BBB model classifies the compounds only as follows: permeable (CNS+) or non-permeable (CNS−) and the assays were made from a stock solution of 1 mg for each compound [25, 40, 41, 42].

HDAC-6 = settings: cited from earlier work
[2] = PBMC viability assay by MTT; assay type: cell-based, human; settings: MTT 48 h, non-tumour human PBMC
Description: (§1) The SI indicates how selective a compound is for a tumour cell line compared with a non-tumour cell line.
(§2) Human peripheral blood mononuclear cells (PBMCs) were used to determine the selectivity index (SI) and were obtained from healthy volunteers under a protocol approved by the Ethics Committee CAAE: 38257914.7.0000.5259. Immortalized cells were also obtained from the Rio de Janeiro Cell Bank (BCRJ).
(§3) First, 8 mL of blood from each healthy donor (3 people) was collected in a tube with EDTA in a 1:20 ratio to prevent the blood from clotting. In a 15 mL Falcon tube containing 4 mL of Ficoll-Paque, the 8 mL of blood collected was slowly added, letting it fall down the walls of the tube. It was centrifuged (Universal Centrifuge 320R Hettich) for 40 min at 750× g at 21 °C with acceleration 1 and brake 0. After centrifugation, in order to extract the ring of mononuclear cells, the supernatant above it was first carefully discarded so as not to disturb the ring. The ring was then slowly removed and placed in another 15 mL Falcon tube to which pure RPMI-1640 medium was added in a 1:1 ratio and centrifuged for 10 min at 580× g and 21 °C with acceleration 8 and brake 9 [34, 35].
(§4) The supernatant was discarded, and the pellet was resuspended in 1 mL of RPMI-1640 medium supplemented with 10% SBF and 1% antibiotic. An amount of 20 µL of cells were taken from the mixture and added to 380 µL of trypan blue dye for counting in the Neubauer chamber. Considering that 80% of PBMCs are lymphocytes and the rest are monocytes, the cells were plated with the aim of having 10^5 cell/well.

[3] = tested on: human peripheral blood mononuclear cells (hPBMC); assay: PBMC viability assay by MTT; assay type: cell-based; settings: MTT 48 h; for Emax: human PBMC, maximum cytotoxic response at 100 µM; for CC50: non-tumour human PBMC
Description: as §1, §2, §3, §4

CCRF-CEM = assay: SRB cell viability/antiproliferative assay, CCRF-CEM; settings: Homo sapiens, 48 h
PC-3 = assay: SRB cell viability/antiproliferative assay, PC-3; settings: for Emax: SRB 48 h, PC-3, maximum effect at maximum concentration used
[4] = tested on: T lymphoblast cell line (MOLT-4); assay: MTT cell viability assay, MOLT-4; settings: Homo sapiens
Description: as §5

In the case of `CN(C)c1ccc(C(=O)N/N=C/c2ccc(C(=O)NO)cc2)cc1` [LASSBio-1911], the IC50 (HDAC8) is listed as 0.23 µM, the CC50 ([1]; 24 h) is listed as 9.69 µM and the Emax ([1]; 24 h) is listed as 98%. For the same molecule, the CC50 ([1]; 48 h) was 6.98 µM, the Emax ([1]; 48 h) was 98.8% and the CC50 ([1]; 72 h) was 6.92 µM. The Emax ([1]; 72 h) was 97.1%, the “metabolic stability in rat plasma (in words)” value (Plasma stability) was “high metabolic stability” and the recovery at 10 μM (Plasma stability) was 73.4%. The half-life at 10 μM (Plasma stability) was 6.42 h, the “Elimination Rate Constant (k)” value (Plasma stability) was 0.0018 and the “Metabolization Rate” value (Plasma stability) was 36.14%. The “Classification BBB” value (PAMPA—BBB) was “CNS−”, the Papp (PAMPA—BBB) was 0.29 ×10⁻⁶ cm/s and the IC50 (HDAC-6) was 0.015 µM. For the same molecule, the CC50 at 48 h [2] was greater than 100 µM, the Emax [3] was 31.1% and the CC50 [3] was “no cytotoxic effect”. It also gave a CC50 (CCRF-CEM) of 25.2 µM, an Emax (CCRF-CEM) of 69.2% and a CC50 (PC-3; Homo sapiens, PC-3, 48 h) greater than 100 µM. For the same molecule, the Emax (PC-3; Homo sapiens, PC-3, 48 h) was less than 35%, the Emax (PC-3) was 34.04% and the CC50 ([4]; MOLT-4, 24 h) was 13.8 µM. For the same molecule, the Emax ([4]; MOLT-4, 24 h) was 96.5%, the CC50 ([4]; MOLT-4, 48 h) was 6.15 µM and the Emax ([4]; MOLT-4, 48 h) was 98.9%. For the same molecule, the CC50 ([4]; MOLT-4, 72 h) was 5.27 µM and the Emax ([4]; MOLT-4, 72 h) was 99.2%.
For `O=C(NO)c1ccc(/C=N/NC(=O)c2cc(N3CCOCC3)nc(-c3cccc(O)c3)n2)cc1` [LASSBio-2208], the IC50 (HDAC8) is given as 0.0676 µM, the CC50 ([1]; 24 h) is given as 27.8 µM and the Emax ([1]; 24 h) is given as 69.4%. It also gave a CC50 ([1]; 48 h) of 8.68 µM, an Emax ([1]; 48 h) of 91.7% and a CC50 ([1]; 72 h) of 8.54 µM. For the same molecule, the Emax ([1]; 72 h) was 90.4%, the “metabolic stability in rat plasma (in words)” value (Plasma stability) was “high metabolic stability” and the recovery at 10 μM (Plasma stability) was 75.5%. The half-life at 10 μM (Plasma stability) was 14.4 h, the “Elimination Rate Constant (k)” value (Plasma stability) was 0.0008 and the “Metabolization Rate” value (Plasma stability) was 20.61%. For the same molecule, the “Classification BBB” value (PAMPA—BBB) was “CNS−”, the “Pe. Exp. BBB” value (PAMPA—BBB) was “low permeation” and the Papp (PAMPA—BBB) was 0.69 ×10⁻⁶ cm/s. For the same molecule, the IC50 (HDAC-6) was 0.0153 µM, the CC50 at 48 h [2] was greater than 100 µM and the Emax [3] was 29.9%. The CC50 [3] was “no cytotoxic effect”, the CC50 (CCRF-CEM) was greater than 100 µM and the CC50 (PC-3; Homo sapiens, PC-3, 48 h) was 98.9 µM. It also gave an Emax (PC-3; Homo sapiens, PC-3, 48 h) greater than 50%, a CC50 ([4]; MOLT-4, 24 h) of 7.14 µM and an Emax ([4]; MOLT-4, 24 h) of 84.1%. The CC50 ([4]; MOLT-4, 48 h) was 8.26 µM, the Emax ([4]; MOLT-4, 48 h) was 83.2% and the CC50 ([4]; MOLT-4, 72 h) was 7.15 µM. It also gave an Emax ([4]; MOLT-4, 72 h) of 91.2%.
